From the SangsterLogP compilation

Assay: from Savola, J.; Ruskoaho, H.; Salonen, J.; Puurunen, J.; Karjalainen, A.; Kurkela, K.; Karki, N. (1988). Cardiovascular and sedative alpha-adrenoceptor effects of detomidine-like arylalkylimidazoles and …
Details: pH 7.4

Which logD does the source give for `Cc1cccc(C)c1CCCCc1c[nH]cn1` here?
The logD was 3.3.

With `Cc1cccc(C)c1CCn1ccnc1` as the molecule, how does the logD read?
The logD was 2.51.

For `Cc1ccc(Cc2c[nH]cn2)c(C)c1`, which logD is on record?
Its logD is 2.52.

For `Cc1cccc(C)c1CCc1ncc[nH]1`, which logD is on record?
The logD was 2.2.

With `Cc1cccc(C)c1Cc1ccccn1` as the molecule, how does the logD read?
The logD was 3.48.

With `Cc1cccc(C)c1/C=C/c1c[nH]cn1` as the molecule, how does the logD read?
Its logD is 3.35.

With `Cc1cccc(Cc2c[nH]cn2)c1` as the molecule, how does the logD read?
The logD was 2.21.

For `Cc1cc(C)cc(Cc2c[nH]cn2)c1`, which logD is on record?
Its logD is 2.34.

Which logD does the source give for `Cc1cccc(Cc2c[nH]cn2)c1C` here?
Its logD is 2.5.

For `Cc1cccc(C)c1Cc1cnc[nH]1`, which logD is on record?
Its logD is 2.54.

For `Cc1ccccc1Cc1c[nH]cn1`, which logD is on record?
The logD was 2.13.

Which logD does the source give for `Cc1cccc(C)c1CCCc1c[nH]cn1` here?
The logD was 2.87.

For `Cc1cccc(C)c1CCc1c[nH]cn1`, which logD is on record?
Its logD is 2.73.

Which logD does the source give for `Cc1cccc(C)c1-c1c[nH]cn1` here?
Its logD is 2.38.

Which logD does the source give for `Cc1ccc(C)c(Cc2c[nH]cn2)c1` here?
The logD was 2.54.

Which logD does the source give for `Cc1ccc(Cc2c[nH]cn2)cc1C` here?
Its logD is 2.54.
